The results in this text go back to ChEMBL document CHEMBL4177715, “Synthesis of radioiodinated probes targeted toward matrix metalloproteinase-12” (Bioorg Med Chem Lett, 2018).

pIC50: −log10 of the molar value.

The pIC50 is the IC50 on a negative log10 scale, so that one unit is a factor of ten.

The target in assay [1] is Collagenase 3 (Homo sapiens, UniProt P45452). Briefly: Inhibition of recombinant human MMP13 using Mca-Pro-Leu-Gly-Leu-Dpa(Dnp)-Ala-Arg-NH2 as substrate after 30 mins by fluorescence spectrometry.
Assay [2] deals with Macrophage metalloelastase (Homo sapiens, UniProt P39900). As to the kind of experiment: Inhibition of recombinant human MMP12 using Mca-Pro-Leu-Gly-Leu-Dpa(Dnp)-Ala-Arg-NH2 as substrate after 30 mins by fluorescence spectrometry.
Chain of Macrophage metalloelastase (P39900 whole entry): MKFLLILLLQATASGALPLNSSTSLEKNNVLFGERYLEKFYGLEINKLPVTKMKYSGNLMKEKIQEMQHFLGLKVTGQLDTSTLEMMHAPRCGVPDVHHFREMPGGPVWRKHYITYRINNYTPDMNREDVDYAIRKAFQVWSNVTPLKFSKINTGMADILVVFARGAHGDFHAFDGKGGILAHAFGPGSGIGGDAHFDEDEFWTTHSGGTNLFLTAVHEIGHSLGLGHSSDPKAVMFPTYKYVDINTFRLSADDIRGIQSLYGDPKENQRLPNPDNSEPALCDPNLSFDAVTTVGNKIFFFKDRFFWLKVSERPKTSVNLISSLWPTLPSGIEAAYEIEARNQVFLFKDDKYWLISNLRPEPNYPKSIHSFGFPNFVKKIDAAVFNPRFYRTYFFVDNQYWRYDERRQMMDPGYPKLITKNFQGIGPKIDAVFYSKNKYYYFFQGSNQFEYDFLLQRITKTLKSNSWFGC

Take `CC(C)[C@H](NS(=O)(=O)c1ccc2c(c1)oc1ccc(NC(=O)Oc3ccc(Br)cc3)cc12)C(=O)O`: the figures for the pIC50 in assay [1] and in assay [2] were 7.29 and 7.96, respectively.

For the compound `CC(C)[C@H](NS(=O)(=O)c1ccc2c(c1)oc1ccc(NC(=O)c3ccc(I)cc3)cc12)C(=O)O`, the pIC50 in assay [1] is below 5.70; in assay [2], 6.30. `CC(C)[C@H](NS(=O)(=O)c1ccc2c(c1)oc1ccc(NC(=O)Oc3ccc(I)cc3)cc12)C(=O)O`: the results for the pIC50 in assay [1] and in assay [2] were 7.16 and 8.07, respectively. On the same counts, the results for `CC(C)[C@H](NS(=O)(=O)c1ccc2c(c1)oc1ccc(NS(=O)(=O)c3ccc(I)cc3)cc12)C(=O)O` are 6.39 and 6.53. As for `CC(C)[C@H](NS(=O)(=O)c1ccc2c(c1)oc1ccc(NC(=O)Oc3ccc(F)cc3)cc12)C(=O)O`, the pIC50 in assay [1] is 7.19.
